Reference: US20060110401A1, “Mixture of peptides from c and ns3 proteins of the hepatitis c virus and applications thereof” (priority 2002, published 2006)
Read-outs that look alike come from different tables or passages of the source. Residues, ends and D or L forms follow the SMILES beside them.

How the values were obtained:
[1] = target: T1, HLA-DR15 (DRB1*1501) (Homo sapiens, UniProt P01903+P01911); experiment: biochemical; format: binding; settings: DRB1*1501; read-out: binds with good affinity to DR15
T1 construct: endogenous in cells; host or cells: homozygous EBV-transformed human B lymphocyte lines; immunopurified with antibody L243

[2] = target: T2, HLA-DRB5 (DRB5*0101) (Homo sapiens, UniProt P01903+Q30154); experiment: biochemical; format: binding; settings: read-out: binds with good affinity to DRB5
T2 construct: endogenous in cells; host or cells: homozygous EBV-transformed human B lymphocyte lines; immunopurified with antibody L243

[3] = target: T3, HLA-DRB3 (DRB3*0101) (Homo sapiens, UniProt P01903+P79483); experiment: HLA II/peptide binding assay, HLA-DRB3; settings: read-out: binds with good affinity to DRB3
T3 construct: endogenous in cells; host or cells: homozygous EBV-transformed human B lymphocyte lines; immunopurified with antibody L243

[4] = system: DRB5; experiment: DRB5
[5] = system: DRB3; experiment: DRB3
[6] = target: T4, HLA-DRB4 (DRB4*0101) (Homo sapiens, UniProt P01903+P13762, G164S); experiment: biochemical; format: binding; settings: read-out: binds with good affinity to DRB4
T4 construct: endogenous in cells; host or cells: homozygous EBV-transformed human B lymphocyte lines; immunopurified with antibody L243

[7] = system: DR7; experiment: DR7
[8] = system: DR11; experiment: DR11
Description: (§1) Table printed on a drawing sheet, Figure 2
Where the first naming reader finds the target: head: DR11

[9] = target: HLA-DR7 (DRB1*0701) (Homo sapiens, UniProt P01903+P01911, A100R/A102G/A103Q/D57E/D86V/E43K/F76Y/K127E/L162R/M171V/P40G/Q125H/Q99D/R33Q/R42Y/R54Q/S133A/S66F/T210M/V115G/Y107V/Y59L/Y89S); experiment: biochemical; format: binding; settings: read-out: binds with good affinity to DR7
[10] = system: DP401; experiment: DP401
[11] = target: T5, HLA-DR1 (DRB1*0101) (Homo sapiens, UniProt P01903+P01911, A100R/D57E/F55L/F60I/F76Y/I96L/L162R/M171V/P40L/Q125E/R42F/V115G/Y59C); experiment: biochemical; format: binding; settings: for IC50: DRB1*0101; for affinity for HLA-DR1 (in words): legend of FIG. 4
T5 construct: endogenous in cells; host or cells: homozygous EBV-transformed human B lymphocyte lines; immunopurified with antibody L243

[12] = target: HLA-DR11 (DRB1*1101) (Homo sapiens, UniProt P01903+P01911, A100R/A169T/A87E/I96F/K41T/L162R/M171V/P40S/Q125H/Q178H/Q39Y/Q99D/R42S/S66Y/T262R/V115G/W38E); experiment: biochemical; format: binding; settings: read-out: binds with good affinity to DR11
[13] = system: DP402; experiment: DP402
[14] = system: DR15; experiment: DR15
[15] = target: T6, HLA-DR4 (DRB1*0401) (Homo sapiens, UniProt P01903+P01911, A100K/A169T/F76Y/I96L/K127E/L162R/M171V/N62H/P40V/Q125Y/R42H/S133A/S149N/S66Y/V115G/V209L/W38E); experiment: biochemical; format: binding; settings: read-out: binds with good affinity to DR4
T6 construct: endogenous in cells; host or cells: homozygous EBV-transformed human B lymphocyte lines; immunopurified with antibody L243

[16] = target: HLA-DP402 (DPB1*0402) (Homo sapiens, UniProt P04440+P20036, A65V/A84D/A85E/L207M); experiment: biochemical; format: binding; settings: DP*0402; read-out: binds with good affinity to DP402
[17] = system: DR13; experiment: DR13
Description: as §1
Where the first naming reader finds the target: head: DR13

[18] = system: T lymphocytes derived from PBMCs from patients chronically infected with HCV; format: cell-based, human; settings: supernatant 48 h, —: not detected
[19] = system: DRB4; experiment: DRB4
Description: as §1
Where the first naming reader finds the target: head: DRB4

[20] = target: HLA-DP401 (DPB1*0401) (Homo sapiens, UniProt P04440+P20036); experiment: biochemical; format: binding; settings: DP*0401; read-out: binds with good affinity to DP401
[21] = system: DR3; experiment: DR3
Description: as §1
Where the first naming reader finds the target: head: DR3

[22] = target: HLA-DR13 (DRB1*1301) (Homo sapiens, UniProt P01903+P01911, A100E/A169T/K41T/L162R/M171V/P40S/Q125H/Q178H/Q39Y/Q99D/R42S/S66N/T262R/W38E/Y61H); experiment: biochemical; format: binding; settings: read-out: binds with good affinity to DR13
[23] = target: T7, HLA-DR3 (DRB1*0301) (Homo sapiens, UniProt P01903+P01911, A100K/A102G/A103R/A169T/F55Y/I96L/K41T/L162R/M171V/P40S/Q125H/Q178H/Q39Y/R42S/S66N/T106N/T262R/W38E/Y61H); experiment: biochemical; format: binding; settings: read-out: binds with good affinity to DR3
T7 construct: endogenous in cells; host or cells: homozygous EBV-transformed human B lymphocyte lines; immunopurified with antibody L243

[24] = system: DR4; experiment: DR4
[25] = system: DR1; experiment: DR1
[26] = read-out: binds with good affinity to DR1
[27] = competition with biotinylated tracer HA 306-318, read-out: IC50, binding to HLA-DR1

Chain of HLA-DR11 (DRB1*1101) (P01903 26-254 limits assumed, other chains not shown): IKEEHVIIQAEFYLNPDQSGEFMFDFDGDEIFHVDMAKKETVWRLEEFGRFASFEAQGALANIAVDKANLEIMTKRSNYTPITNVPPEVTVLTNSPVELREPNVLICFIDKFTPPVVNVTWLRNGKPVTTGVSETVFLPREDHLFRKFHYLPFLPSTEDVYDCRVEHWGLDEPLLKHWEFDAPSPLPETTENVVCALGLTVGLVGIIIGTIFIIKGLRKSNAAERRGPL

SMILES: CC[C@H](C)[C@H](NC(=O)CNC(=O)[C@@H]1CCCN1C(=O)[C@@H](N)CCCCN)C(=O)N[C@@H](Cc1ccc(O)cc1)C(=O)N[C@@H](CCCNC(=N)N)C(=O)N[C@@H](Cc1ccccc1)C(=O)N[C@H](C(=O)N[C@@H](C)C(=O)N1CCC[C@H]1C(=O)NCC(=O)N[C@@H](CCC(=O)O)C(=O)N[C@@H](CCCNC(=N)N)C(=O)N1CCC[C@H]1C(=O)N[C@@H](CO)C(=O)NCC(=O)N[C@@H](CCSC)C(=O)N[C@@H](Cc1ccccc1)C(=O)N[C@@H](CC(=O)O)C(=O)O)C(C)C [27N 1495-1513] (H-KPGIYRFVAPGERPSGMFD-OH; N-terminus and C-terminus assumed)
- IC50 [1]: < 1000 nM
- IC50 [2]: < 1000 nM
- IC50 [3]: < 1000 nM
- IC50 [4]: 2 nM
- IC50 [5]: 40000 nM
- IC50 [6]: < 1000 nM
- IC50 [7]: 313 nM
- IC50 [8]: 175 nM
- IC50 [9]: < 1000 nM
- IC50 [10]: > 100000 nM
- IC50 [11, 26]: < 1000 nM
- IC50 [12]: < 1000 nM
- IC50 [13]: > 100000 nM
- IC50 [14]: 150 nM

SMILES: CSCC[C@H](NC(=O)[C@H](Cc1ccc(O)cc1)NC(=O)[C@H](C)NC(=O)[C@H](CCCNC(=N)N)NC(=O)[C@H](CC(C)C)NC(=O)[C@H](CCCNC(=N)N)NC(=O)[C@@H](NC(=O)[C@@H](NC(=O)[C@@H](NC(=O)[C@H](CCC(=O)O)NC(=O)[C@H](C)NC(=O)[C@@H]1CCCN1C(=O)[C@@H](NC(=O)[C@H](CC(C)C)NC(=O)[C@H](CCC(=O)O)NC(=O)[C@H](Cc1ccc(O)cc1)NC(=O)[C@H](Cc1c[nH]c2ccccc12)NC(=O)[C@H](C)NC(=O)[C@H](C)NC(=O)CN)[C@@H](C)O)[C@@H](C)O)[C@@H](C)O)C(C)C)C(=O)N[C@@H](CC(N)=O)C(=O)N[C@H](C(=O)N1CCC[C@H]1C(=O)NCC(=O)N[C@@H](CC(C)C)C(=O)N1CCC[C@H]1C(=O)N[C@H](C(=O)N[C@@H](C)C(=O)N[C@@H](CCC(N)=O)C(=O)N[C@@H](CC(=O)O)C(=O)O)C(C)C)[C@@H](C)O [28N 1524-1553]
- IC50 [15]: < 1000 nM
- IC50 [1]: < 1000 nM
- IC50 [2]: < 1000 nM
- IC50 [3]: < 1000 nM
- IC50 [4]: 20 nM
- IC50 [16]: < 1000 nM
- IC50 [6]: < 1000 nM
- IC50 [17]: 10000 nM
- IC50 [7]: 5 nM
- IC50 [9]: < 1000 nM
- IC50 [11, 27]: 2 nM
- IC50 [11, 26]: < 1000 nM
- affinity for HLA-DR1 (in words) [11]: high affinity
- IL2 ([18]; patient 067): — 76 pg/ml
- IL10 ([18]; patient 067): 86 pg/mL
- IL10 ([18]; patient 078): 21 pg/mL
- IL4 ([18]; patient 093): — 11 pg/ml
- IL10 ([18]; patient 829): 67 pg/mL
- IC50 [12]: < 1000 nM
- IC50 [19]: 30 nM
- IC50 [14]: 1 nM

SMILES: CC(C)C[C@H](NC(=O)[C@H](CCCNC(=N)N)NC(=O)[C@@H]1CCCN1C(=O)CNC(=O)[C@H](CCCNC(=N)N)NC(=O)[C@H](CCCNC(=N)N)NC(=O)[C@@H]1CCCN1C(=O)[C@H](CC(C)C)NC(=O)[C@H](CC(C)C)NC(=O)[C@H](Cc1ccc(O)cc1)NC(=O)[C@@H](NC(=O)CNC(=O)CNC(=O)[C@@H](N)C(C)C)C(C)C)C(=O)NCC(=O)N[C@H](C(=O)N[C@@H](CCCNC(=N)N)C(=O)N[C@@H](C)C(=O)N[C@H](C(=O)N[C@@H](CCCNC(=N)N)C(=O)N[C@@H](CCCCN)C(=O)N[C@H](C(=O)N[C@@H](CO)C(=O)N[C@@H](CCC(=O)O)C(=O)N[C@@H](CCCNC(=N)N)C(=O)N[C@@H](CO)C(=O)N[C@@H](CCC(N)=O)C(=O)O)[C@@H](C)O)[C@@H](C)O)C(C)C [2C 31-57]
- IC50 [20]: < 1000 nM
- IC50 [4]: 3 nM
- IC50 [5]: > 100000 nM
- IC50 [16]: < 1000 nM
- IC50 [21]: > 100000 nM
- IC50 [7]: 500 nM
- IC50 [10]: > 100000 nM
- IC50 [13]: > 100000 nM

SMILES: CC[C@H](C)[C@H](NC(=O)[C@H](CCC(=O)O)NC(=O)[C@H](CCCNC(=N)N)NC(=O)CN)C(=O)N[C@@H](CC(C)C)C(=O)N[C@@H](CC(C)C)C(=O)NCC(=O)N1CCC[C@H]1C(=O)N[C@@H](C)C(=O)N[C@@H](CC(=O)O)C(=O)NCC(=O)N[C@@H](CCSC)C(=O)N[C@H](C(=O)N[C@@H](CO)C(=O)N[C@@H](CCCCN)C(=O)NCC(=O)N[C@@H](Cc1c[nH]c2ccccc12)C(=O)N[C@@H](CCCNC(=N)N)C(=O)N[C@@H](CC(C)C)C(=O)N[C@@H](CC(C)C)C(=O)N[C@@H](C)C(=O)N1CCC[C@H]1C(=O)N[C@H](C(=O)N[C@H](C(=O)N[C@@H](C)C(=O)N[C@@H](Cc1ccc(O)cc1)C(=O)N[C@@H](C)C(=O)N[C@@H](CCC(N)=O)C(=O)N[C@@H](CCC(N)=O)C(=O)N[C@H](C(=O)N[C@@H](CCCNC(=N)N)C(=O)O)[C@@H](C)O)[C@@H](C)O)[C@@H](C)CC)C(C)C [8N 1007-1037]
- IC50 [15]: < 1000 nM
- IC50 [1]: < 1000 nM
- IC50 [2]: < 1000 nM
- IC50 [4]: 2 nM
- IC50 [5]: 15000 nM
- IC50 [16]: < 1000 nM
- IC50 [22]: < 1000 nM
- IC50 [6]: < 1000 nM
- IC50 [21]: 200 nM
- IC50 [7]: 88 nM
- IC50 [8]: 1 nM
- IC50 [9]: < 1000 nM
- IC50 [10]: 7200 nM
- IC50 [23]: < 1000 nM
- IC50 [11, 27]: 2 nM
- IC50 [11, 26]: < 1000 nM
- affinity for HLA-DR1 (in words) [11]: high affinity
- IL10 ([18]; patient 067): 43 pg/mL
- IL10 ([18]; patient 078): 41 pg/mL
- IC50 [12]: < 1000 nM
- IC50 [19]: 60 nM
- IC50 [13]: 881 nM
- IC50 [14]: 30 nM

SMILES: CC[C@H](C)[C@H](NC(=O)[C@@H](NC(=O)[C@H](Cc1ccccc1)NC(=O)[C@@H](NC(=O)[C@@H]1CCCN1C(=O)[C@H](CC(=O)O)NC(=O)[C@H](CC(C)C)NC(=O)[C@H](CO)NC(=O)[C@H](Cc1ccccc1)NC(=O)[C@H](CC(=O)O)NC(=O)[C@@H](NC(=O)[C@@H](NC(=O)[C@H](CCC(N)=O)NC(=O)[C@@H](NC(=O)[C@@H](NC(=O)[C@H](C)NC(=O)[C@@H](N)[C@@H](C)O)C(C)C)[C@@H](C)O)[C@@H](C)O)C(C)C)[C@@H](C)O)[C@@H](C)O)C(=O)N[C@@H](CCC(=O)O)C(=O)N[C@H](C(=O)N[C@H](C(=O)N[C@H](C(=O)N[C@@H](CC(C)C)C(=O)N1CCC[C@H]1C(=O)N[C@@H](CCC(N)=O)C(=O)N[C@@H](CC(=O)O)C(=O)N[C@@H](C)C(=O)O)[C@@H](C)O)[C@@H](C)CC)[C@@H](C)O [26N 1456-1481]
- IC50 [15]: < 1000 nM
- IC50 [1]: < 1000 nM
- IC50 [2]: < 1000 nM
- IC50 [3]: < 1000 nM
- IC50 [5]: 40 nM
- IC50 [22]: < 1000 nM
- IC50 [6]: < 1000 nM
- IC50 [17]: 300 nM
- IC50 [7]: 20 nM
- IC50 [9]: < 1000 nM
- IC50 [24]: 8 nM
- IC50 [23]: < 1000 nM
- IC50 [11, 26]: < 1000 nM
- IC50 [12]: < 1000 nM
- IC50 [25]: 2 nM
